Results published in US10385024B2, “Compounds and methods for inhibiting NHE-mediated antiport in the treatment of disorders associated with fluid retention or salt overload and gastrointestinal tract disorders” (Ardelyx, Inc., priority 2012, dated 2019).

How the values were obtained:
human NHE-3 = target: T1, human NHE-3 (Homo sapiens, UniProt P48764); assay: Cell-based assay of NHE-3 activity (human NHE3 inhibition assay); settings: OK cells with human NHE-3 gene, BCECF pH dye, 0-30 μM test compound
T1 construct: expressed in transfected cells; host or cells: Opossum kidney (OK) cells (ATCC), transfected by electroporation
T1 sequence (P48764 26-834): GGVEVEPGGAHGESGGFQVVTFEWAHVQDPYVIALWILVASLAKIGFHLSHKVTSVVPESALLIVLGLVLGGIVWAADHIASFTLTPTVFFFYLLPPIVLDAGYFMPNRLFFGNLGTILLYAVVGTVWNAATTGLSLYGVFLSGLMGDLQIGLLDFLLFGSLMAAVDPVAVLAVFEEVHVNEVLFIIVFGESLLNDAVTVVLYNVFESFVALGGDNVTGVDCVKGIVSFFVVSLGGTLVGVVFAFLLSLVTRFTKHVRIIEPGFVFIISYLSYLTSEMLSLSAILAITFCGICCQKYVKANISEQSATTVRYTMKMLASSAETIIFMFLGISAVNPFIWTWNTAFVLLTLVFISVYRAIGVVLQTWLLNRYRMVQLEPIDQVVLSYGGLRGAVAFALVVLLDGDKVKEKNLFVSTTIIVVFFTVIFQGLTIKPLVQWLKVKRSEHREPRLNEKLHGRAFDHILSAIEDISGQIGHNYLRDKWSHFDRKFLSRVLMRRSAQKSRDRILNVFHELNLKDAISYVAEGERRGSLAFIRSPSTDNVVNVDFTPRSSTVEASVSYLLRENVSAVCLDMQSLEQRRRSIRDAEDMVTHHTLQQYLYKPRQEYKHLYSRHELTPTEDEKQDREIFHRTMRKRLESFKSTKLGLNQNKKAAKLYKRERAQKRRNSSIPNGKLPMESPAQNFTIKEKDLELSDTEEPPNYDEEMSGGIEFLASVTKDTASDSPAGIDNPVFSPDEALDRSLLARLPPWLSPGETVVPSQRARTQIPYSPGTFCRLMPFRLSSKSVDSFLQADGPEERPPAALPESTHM
Method: (§1) Rat or human NHE-3-mediated Na^+-dependent H^+ antiport was measured using a modification of the pH sensitive dye method originally reported by Paradiso (Proc. Natl. Acad. Sci. USA. (1984) 81(23): 7436-7440). Opossum kidney (OK) cells were obtained from the ATCC and propagated per their instructions. The rat NHE-3 gene (GenBank M85300) or the human NHE-3 gene (GenBank NM_004174.1) was introduced into OK cells via electroporation, and cells were seeded into 96 well plates and grown overnight. Medium was aspirated from the wells, cells were washed twice with NaCl-HEPES buffer (100 mM NaCl, 50 mM HEPES, 10 mM glucose, 5 mM KCl, 2 mM CaCl2, 1 mM MgCl2, pH 7.4), then incubated for 30 min at room temperature with NH4Cl-HEPES buffer (20 mM NH4Cl, 80 mM NaCl, 50 mM HEPES, 5 mM KCl, 2 mM CaCl2, 1 mM MgCl2, pH 7.4) containing 5 μM bis(acetoxymethyl) 3,3′-(3′,6′-bis(acetoxymethoxy)-5-((acetoxymethoxy)carbonyl)-3-oxo-3H-spiro[isobenzofuran-1,9′-xanthene]-2′,7′-diyl)dipropanoate (BCECF-AM). Cells were washed twice with Ammonium free, Na^+-free HEPES (100 mM choline, 50 mM HEPES, 10 mM glucose, 5 mM KCl, 2 mM CaCl2, 1 mM MgCl2, pH 7.4) and incubated in the same buffer for 10 minutes at room temperature to lower intracellular pH. […] Initial rates were plotted as the average 2 or more replicates, and pIC50 values were estimated using GraphPad Prism.

Rat NHE-3 [1] = target: T2, Rat NHE-3 (Rattus norvegicus, UniProt P26433); assay: Cell-based assay of NHE-3 activity (rat NHE-3 prompt inhibition); settings: OK cells with rat NHE-3 gene, compound present during pH recovery
T2 construct: expressed in transfected cells; host or cells: Opossum kidney (OK) cells (ATCC), transfected by electroporation
Method: as §1

Rat NHE-3 [2] = target: T2, Rat NHE-3; assay: Cell-based assay of NHE-3 activity (persistent inhibition, after washout); settings: OK cells with rat NHE-3 gene, 60 min incubation, recovery initiated 40 min after compound washout
Method: The ability of compounds to inhibit Rat NHE-3-mediated Na^+-dependent H^+ antiport after application and washout was measured using a modification of the pH sensitive dye method described above in Example 74. Opossum kidney (OK) cells were obtained from the ATCC and propagated per their instructions. The rat NHE-3 gene was introduced into OK cells via electroporation, and cells were seeded into 96 well plates and grown overnight. Medium was aspirated from the wells, cells were washed twice with NaCl-HEPES buffer (100 mM NaCl, 50 mM HEPES, 10 mM glucose, 5 mM KCl, 2 mM CaCl2, 1 mM MgCl2, pH 7.4), then overlayed with NaCl-HEPES buffer containing 0-30 μM test compound. After a 60 min incubation, the test drug containing buffer was aspirated from the cells, cells were washed twice with NaCl-HEPES buffer without drug, then incubated for 30 min at room temperature with NH4Cl-HEPES buffer (20 mM NH4Cl, 80 mM NaCl, 50 mM HEPES, 5 mM KCl, 2 mM CaCl2, 1 mM MgCl2, pH 7.4) containing 5 μM BCECF-AM. Cells were washed twice with ammonium free, Na^+-free HEPES (100 mM choline, 50 mM HEPES, 10 mM glucose, 5 mM KCl, 2 mM CaCl2, 1 mM MgCl2, pH 7.4) and incubated in the same buffer for 10 minutes at room temperature to lower intracellular pH. […] Initial rates were plotted as the average 2 or more replicates, and pIC50 values were estimated using GraphPad Prism.

[3] = system: absorption of sodium from the intestinal lumen; assay: Inhibition of intestinal sodium absorption (urinary sodium and fecal form); assay type: in vivo, Sprague-Dawley rats; settings: rat; for response vs control in vivo at 3 mg/kg: 3 mg/kg oral gavage, urine 16 h post-dose, asterisks = significance vs vehicle (*P<0.05, **P<0.01, ***P<0.001), read-out: uNa (% of vehicle)
Method: Urinary sodium concentration and fecal form were measured to assess the ability of selected example compounds to inhibit the absorption of sodium from the intestinal lumen. Eight-week old Sprague-Dawley rats were purchased from Charles River Laboratories (Hollister, Calif.), were housed 2 per cage, and acclimated for at least 3 days before study initiation. Animals were fed Harlan Teklad Global 2018 rodent chow (Indianapolis, Ind.) and water ad libitum throughout the study and maintained in a standard light/dark cycle of 6 AM to 6 PM. On the day of the study, between 4 PM and 5 PM, a group of rats (n=6) were dosed via oral gavage with test compound at the dosage indicated or vehicle (water) at a volume of 10 mL/kg. After dose administration animals were placed in individual metabolic cages where they were also fed the same chow in meal form and watered ad libitum. At 16 h post-dose, the urine samples were collected and fecal form was assessed by two independent observations. Fecal forms were scored according to a common scale associated with increasing fecal water to the wettest observation in the cage's collection funnel (1, normal pellet; 2, pellet adhering to sides of collection funnel due to moisture; 3, loss of normal pellet shape; 4, complete loss of shape with a blotting pattern; 5, liquid fecal streams evident). A rat's fecal form score (FFS) was determined by averaging both observational scores for all rats within a group (n=6). In every study the vehicle group average was 1. For urine samples, the volumes were determined gravimetrically and centrifuged at 3,600×g. The supernatants were diluted 100-fold in deionized Milli-Q water then filtered through a 0.2 μm GHP Pall AcroPrep filter plate (Pall Life Sciences, Ann Arbor, Mich.) prior to analysis by ion chromatography. Ten microliters of each filtered extract was injected onto a Dionex ICS-3000 ion chromatograph system (Dionex, Sunnyvale, Calif.). Cations were separated by an isocratic method using 25 mM methanesulfonic acid as the eluent on an IonPac CS12A 2 mm i.d.×250 mm, 8 μm particle size cation exchange column (Dionex). Sodium was quantified using standards prepared from a cation standard mix containing Li^+, Na^+, NH4^+, K^+, Mg^2+, and Ca^2+ (Dionex). The mean mass of sodium urinated for every group in the 16 h period was determined with the vehicle group usually urinating approximately 21 mg sodium. The urine Na (uNa) for rats in the test groups were expressed as a percentage of the vehicle mean and the means were compared to that of the vehicle group by utilizing a one-way analysis of variance coupled with a Dunnett's post hoc test.

T2 sequence (P26433 29-831): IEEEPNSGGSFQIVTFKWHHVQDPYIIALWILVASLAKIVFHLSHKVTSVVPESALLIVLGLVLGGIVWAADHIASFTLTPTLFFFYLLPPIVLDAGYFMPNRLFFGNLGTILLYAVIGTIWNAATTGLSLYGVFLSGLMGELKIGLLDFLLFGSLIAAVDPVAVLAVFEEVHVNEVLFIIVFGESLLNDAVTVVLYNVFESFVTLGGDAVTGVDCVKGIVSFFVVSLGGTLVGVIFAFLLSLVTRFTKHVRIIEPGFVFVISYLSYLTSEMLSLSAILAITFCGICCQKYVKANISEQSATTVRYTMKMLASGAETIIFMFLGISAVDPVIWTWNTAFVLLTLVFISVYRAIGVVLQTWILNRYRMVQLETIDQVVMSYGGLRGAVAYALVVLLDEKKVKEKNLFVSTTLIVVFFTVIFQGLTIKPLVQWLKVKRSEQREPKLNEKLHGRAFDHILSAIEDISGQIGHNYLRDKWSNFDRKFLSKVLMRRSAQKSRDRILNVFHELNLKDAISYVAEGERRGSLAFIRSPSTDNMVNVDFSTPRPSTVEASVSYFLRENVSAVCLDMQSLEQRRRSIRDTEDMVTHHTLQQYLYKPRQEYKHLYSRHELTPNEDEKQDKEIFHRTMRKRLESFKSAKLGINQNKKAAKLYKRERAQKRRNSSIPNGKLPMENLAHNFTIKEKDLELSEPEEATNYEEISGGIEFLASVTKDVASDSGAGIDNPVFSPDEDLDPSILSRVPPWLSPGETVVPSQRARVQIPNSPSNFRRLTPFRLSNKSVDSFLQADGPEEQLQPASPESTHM

Row | Structure (SMILES) | Human NHE3 pIC50 (human NHE-3) | Rat NHE3 pIC50 (prompt) (Rat NHE-3 [1]) | Rat NHE3 pIC50 (persistent) (Rat NHE-3 [2]) | response vs control in vivo at 3 mg/kg [3] | FFS ([3]; fecal form score, scale 1 (normal pellet) to 5 (liquid fecal streams), group average, 3 mg/kg oral, 16 h post-dose, vehicle = 1) | IC50 (human NHE-3; read-out: Human NHE3 pIC50 (converted)) | IC50 (Rat NHE-3 [1]; read-out: Rat NHE3 pIC50 (prompt) (converted)) | IC50 (Rat NHE-3 [2]; read-out: Rat NHE3 pIC50 (persistent) (converted))
1 | CN1Cc2c(Cl)cc(Cl)cc2[C@H](c2cccc(S(=O)(=O)NCCOCCOCCNC(=O)NCCN(CCNC(=O)NCCOCCOCCNS(=O)(=O)c3cccc([C@@H]4CN(C)Cc5c(Cl)cc(Cl)cc54)c3)CCNC(=O)NCCOCCOCCNS(=O)(=O)c3cccc([C@@H]4CN(C)Cc5c(Cl)cc(Cl)cc54)c3)c2)C1 [Example 53] | B (B NHE3 pIC50 5-7) | B (B NHE3 pIC50 5-7) | C (C NHE3 pIC50 > 7) | 35 to 75% |  |  |  | 
2 | CN1Cc2c(Cl)cc(Cl)cc2[C@H](c2cccc(S(=O)(=O)NCCOCCOCCNC(=O)CCC(CCC(=O)NCCOCCOCCNS(=O)(=O)c3cccc([C@@H]4CN(C)Cc5c(Cl)cc(Cl)cc54)c3)(CCC(=O)NCCOCCOCCNS(=O)(=O)c3cccc([C@@H]4CN(C)Cc5c(Cl)cc(Cl)cc54)c3)NC(=O)N3CCN(CCOCCO)CC3)c2)C1 [Example 33] | C (C NHE3 pIC50 > 7) | C (C NHE3 pIC50 > 7) | C (C NHE3 pIC50 > 7) | < 35% | 2 |  |  | 
3 | CCCCCCCCCCC(=O)NC(CCC(=O)NCCOCCOCCOCCNS(=O)(=O)c1cccc([C@@H]2CN(C)Cc3c(Cl)cc(Cl)cc32)c1)(CCC(=O)NCCOCCOCCOCCNS(=O)(=O)c1cccc([C@@H]2CN(C)Cc3c(Cl)cc(Cl)cc32)c1)CCC(=O)NCCOCCOCCOCCNS(=O)(=O)c1cccc([C@@H]2CN(C)Cc3c(Cl)cc(Cl)cc32)c1 [Example 15, 4-(1-(3-((S)-6,8-dichloro-2-methyl-1,2,3,4-tetrahydroisoquinolin-4-yl)phenylsulfonamido)-13-oxo-3,6,9-trioxa-12-azapentadecan-15-yl)-N^1,N^7-bis(2-(2-(2-(2-(3-((S)-6,8-dichloro-2-methyl-1,2,3,4-tetrahydroisoquinolin-4-yl)phenylsulfonamido)ethoxy)ethoxy)ethoxy)ethyl)-4-undecanamidoheptanediamide] |  |  |  |  |  | 0.1 to 10 µM | > 10 µM | 0.1 to 10 µM
4 | CN1Cc2c(Cl)cc(Cl)cc2[C@H](c2cccc(S(=O)(=O)NCCOCCOCCNC(=O)NCCN(CCNC(=O)NCCOCCOCCNS(=O)(=O)c3cccc([C@@H]4CN(C)Cc5c(Cl)cc(Cl)cc54)c3)C(=O)CCOCCOCCOCCOCCOCCOCCOCCOCCOCCC(=O)N(CCNC(=O)NCCOCCOCCNS(=O)(=O)c3cccc([C@@H]4CN(C)Cc5c(Cl)cc(Cl)cc54)c3)CCNC(=O)NCCOCCOCCNS(=O)(=O)c3cccc([C@@H]4CN(C)Cc5c(Cl)cc(Cl)cc54)c3)c2)C1 [Example 61] | C (C NHE3 pIC50 > 7) | B (B NHE3 pIC50 5-7) | B (B NHE3 pIC50 5-7) |  |  |  |  | 
5 | CN1Cc2c(Cl)cc(Cl)cc2[C@H](c2cccc(S(=O)(=O)NCCOCCOCCNC(=O)NCCN(CCNC(=O)NCCOCCOCCNS(=O)(=O)c3cccc([C@@H]4CN(C)Cc5c(Cl)cc(Cl)cc54)c3)C(=O)CCOCCOCCOCCOCCOCCC(=O)N(CCNC(=O)NCCOCCOCCNS(=O)(=O)c3cccc([C@@H]4CN(C)Cc5c(Cl)cc(Cl)cc54)c3)CCNC(=O)NCCOCCOCCNS(=O)(=O)c3cccc([C@@H]4CN(C)Cc5c(Cl)cc(Cl)cc54)c3)c2)C1 [Example 59] | C (C NHE3 pIC50 > 7) | B (B NHE3 pIC50 5-7) | C (C NHE3 pIC50 > 7) |  |  |  |  | 
6 | CCCCCCCCOc1ccc(CNC(CCC(=O)NCCOCCOCCNS(=O)(=O)c2cccc([C@@H]3CN(C)Cc4c(Cl)cc(Cl)cc43)c2)(CCC(=O)NCCOCCOCCNS(=O)(=O)c2cccc([C@@H]3CN(C)Cc4c(Cl)cc(Cl)cc43)c2)CCC(=O)NCCOCCOCCNS(=O)(=O)c2cccc([C@@H]3CN(C)Cc4c(Cl)cc(Cl)cc43)c2)cc1 [Example 23] | C (C NHE3 pIC50 > 7) | B (B NHE3 pIC50 5-7) | B (B NHE3 pIC50 5-7) |  |  |  |  | 
7 | CN1Cc2c(Cl)cc(Cl)cc2[C@H](c2cccc(S(=O)(=O)NCCOCCOCCNC(=O)CCC(CCC(=O)NCCOCCOCCNS(=O)(=O)c3cccc([C@@H]4CN(C)Cc5c(Cl)cc(Cl)cc54)c3)(CCC(=O)NCCOCCOCCNS(=O)(=O)c3cccc([C@@H]4CN(C)Cc5c(Cl)cc(Cl)cc54)c3)NCc3ccc(-c4ccc(Cl)cc4)cc3)c2)C1 [Example 24] | A (A NHE3 pIC50 < 5) | A (A NHE3 pIC50 < 5) | B (B NHE3 pIC50 5-7) |  |  |  |  | 
